Drawing on article PMC6934184, “Selective DNA-PKcs inhibition extends the therapeutic index of localized radiotherapy and chemotherapy” (The Journal of Clinical Investigation, 2019), this text covers inhibition for 1 compound.

For the assay, the target named is T1, LRRK2 I2020T (Homo sapiens, UniProt Q5S007, I2020T).
T1 construct: purchased Thermo Fisher Scientific (Life Technologies) SelectScreen
The experiment in a line: SelectScreen Adapta. The format is biochemical. The method in brief:
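Compound tested in SelectScreen activity assays, Z'LYTE for CSF1R, CDK1/cyclin B and MAP2K6 and Adapta for CAMK1. ATP for CAMK1 was listed as 10, and Km app was used for CSF1R. Results are expressed in percent.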

T1 sequence (Q5S007 whole entry I2020T): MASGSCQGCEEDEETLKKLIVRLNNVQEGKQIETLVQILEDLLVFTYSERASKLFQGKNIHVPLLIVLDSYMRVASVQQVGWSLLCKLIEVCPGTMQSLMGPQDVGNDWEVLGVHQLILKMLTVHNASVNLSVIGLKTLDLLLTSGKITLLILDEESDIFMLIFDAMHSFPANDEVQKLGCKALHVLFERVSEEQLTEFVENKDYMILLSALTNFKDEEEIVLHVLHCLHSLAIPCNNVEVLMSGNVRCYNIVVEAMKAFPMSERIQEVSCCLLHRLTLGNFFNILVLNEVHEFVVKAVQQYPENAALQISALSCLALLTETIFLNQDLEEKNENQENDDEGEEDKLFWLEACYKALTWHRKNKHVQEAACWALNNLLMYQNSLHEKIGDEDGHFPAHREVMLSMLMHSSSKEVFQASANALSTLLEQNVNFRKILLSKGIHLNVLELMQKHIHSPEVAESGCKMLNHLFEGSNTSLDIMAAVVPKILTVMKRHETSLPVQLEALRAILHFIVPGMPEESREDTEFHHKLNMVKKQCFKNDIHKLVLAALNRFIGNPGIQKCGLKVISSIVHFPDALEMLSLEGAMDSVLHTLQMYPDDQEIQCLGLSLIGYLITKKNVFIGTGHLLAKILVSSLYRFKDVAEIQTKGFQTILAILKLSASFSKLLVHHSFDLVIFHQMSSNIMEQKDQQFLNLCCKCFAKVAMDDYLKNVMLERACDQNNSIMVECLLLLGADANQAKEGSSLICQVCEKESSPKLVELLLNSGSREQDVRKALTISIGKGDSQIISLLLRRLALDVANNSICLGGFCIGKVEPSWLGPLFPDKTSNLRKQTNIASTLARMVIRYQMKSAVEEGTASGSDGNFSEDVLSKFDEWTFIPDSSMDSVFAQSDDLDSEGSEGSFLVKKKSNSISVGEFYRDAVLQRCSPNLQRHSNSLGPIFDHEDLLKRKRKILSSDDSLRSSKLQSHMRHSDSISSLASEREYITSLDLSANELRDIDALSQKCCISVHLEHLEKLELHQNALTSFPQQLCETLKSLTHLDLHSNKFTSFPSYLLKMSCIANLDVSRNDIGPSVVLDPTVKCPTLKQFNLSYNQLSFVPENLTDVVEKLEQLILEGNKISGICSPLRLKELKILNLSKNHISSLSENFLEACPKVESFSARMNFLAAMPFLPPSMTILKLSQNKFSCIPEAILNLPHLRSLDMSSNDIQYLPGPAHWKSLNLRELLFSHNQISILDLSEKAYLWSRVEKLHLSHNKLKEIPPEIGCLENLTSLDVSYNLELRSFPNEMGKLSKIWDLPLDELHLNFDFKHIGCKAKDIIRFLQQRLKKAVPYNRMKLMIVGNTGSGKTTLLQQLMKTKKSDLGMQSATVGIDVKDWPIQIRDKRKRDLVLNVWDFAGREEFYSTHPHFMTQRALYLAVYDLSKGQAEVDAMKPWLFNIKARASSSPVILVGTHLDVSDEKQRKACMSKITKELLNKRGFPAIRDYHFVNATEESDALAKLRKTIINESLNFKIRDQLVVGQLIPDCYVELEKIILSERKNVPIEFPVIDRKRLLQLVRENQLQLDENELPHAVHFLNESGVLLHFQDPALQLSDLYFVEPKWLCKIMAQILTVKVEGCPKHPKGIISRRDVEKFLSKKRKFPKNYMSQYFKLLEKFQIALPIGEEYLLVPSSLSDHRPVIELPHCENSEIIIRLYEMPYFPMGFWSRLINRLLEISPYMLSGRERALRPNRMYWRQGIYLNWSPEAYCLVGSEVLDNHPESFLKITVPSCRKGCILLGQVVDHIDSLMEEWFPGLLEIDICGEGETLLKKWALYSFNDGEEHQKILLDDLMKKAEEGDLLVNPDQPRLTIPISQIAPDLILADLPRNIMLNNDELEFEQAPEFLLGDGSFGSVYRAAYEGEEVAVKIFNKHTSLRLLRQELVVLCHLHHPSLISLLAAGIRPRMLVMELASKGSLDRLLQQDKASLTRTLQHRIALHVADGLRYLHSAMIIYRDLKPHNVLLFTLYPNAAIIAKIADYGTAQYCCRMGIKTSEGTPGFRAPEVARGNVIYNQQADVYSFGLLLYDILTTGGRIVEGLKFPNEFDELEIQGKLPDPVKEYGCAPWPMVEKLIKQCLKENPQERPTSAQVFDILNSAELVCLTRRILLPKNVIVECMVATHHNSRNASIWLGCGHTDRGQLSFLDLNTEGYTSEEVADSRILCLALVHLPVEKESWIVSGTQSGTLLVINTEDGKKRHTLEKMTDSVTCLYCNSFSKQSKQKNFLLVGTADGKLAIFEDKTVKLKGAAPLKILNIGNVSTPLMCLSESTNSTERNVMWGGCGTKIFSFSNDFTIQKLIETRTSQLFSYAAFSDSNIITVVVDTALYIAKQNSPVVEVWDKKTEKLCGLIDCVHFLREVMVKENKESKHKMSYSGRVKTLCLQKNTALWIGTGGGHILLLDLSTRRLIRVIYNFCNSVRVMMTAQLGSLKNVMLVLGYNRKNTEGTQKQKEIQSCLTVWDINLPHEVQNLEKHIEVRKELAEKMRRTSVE

As for `CN(C(=O)CN1CCOCC1)c1ccc2sc3c(-c4cccc5c(=O)cc(N6CC7CCC(C6)O7)oc45)cccc3c2c1` [NU5455], the inhibition at 1 µM is -4%.
